Test results reported in PMC9995496, “A screen for MeCP2-TBL1 interaction inhibitors using a luminescence-based assay” (Scientific Reports, 2023).
Counter-ions that a name gives are not always drawn. Like-named read-outs stand apart in the source and are kept apart here. Peptide text beside a SMILES is read from it. * marks the point of attachment. Cbz = O=C(OCc1ccccc1)*; CH2F = FC*

Tested on: PRKACA-PRKAR2A interaction (SmBiT-PRKACA / LgBiT-PRKAR2A), protein kinase A
Design: NanoLuc complementation counter-screen in cell extract, PRKACA with PRKAR2A, loss of luminescence, detects NanoLuc interference
Details: counter-screen for NanoLuc interference, 0.5 h, 20 µM, inhibitor

| SMILES | Inh (PKA) | Inh (PKA) (Inh (PKA)) |
| --- | --- | --- |
| CC(C)(C)c1cnc(CSc2cnc(NC(=O)C3CCNCC3)s2)o1 [UM0141438:01, SNS-032 (BMS-387032)] | 4.184% |  |
| CC[C@H](C)n1cc(C)c2c(C(=O)NCc3c(C)cc(C)[nH]c3=O)cc(-c3ccc(N4CCNCC4)nc3)cc21 [UM0141557:01, GSK126] | 5.02% |  |
| CCn1nnc2c(N3CCOCC3)nc(-c3ccc(NC(=O)Nc4ccc(C(=O)N5CCN(C)CC5)cc4)cc3)nc21 [UM0142067:01, PKI-402] | 0.4885% |  |
| Cc1cc2c(F)c(Oc3ncnn4cc(OC[C@@H](C)O)c(C)c34)ccc2[nH]1 [UM0141474:01, Brivanib (BMS-540215)] | 42.48% |  |
| Cc1ccc(Nc2nccc(N(C)c3ccc4c(C)n(C)nc4c3)n2)cc1S(N)(=O)=O [UM0127957:02, Pazopanib (GW-786034)] |  | 11.23% |
| C[C@H](Nc1ncnc2nc[nH]c12)c1cc2cccc(Cl)c2c(=O)n1-c1ccccc1 [UM0141412:01, IPI-145 (INK1197)] | 8.901% |  |
| Cn1c(=O)cc(N2CCC[C@@H](N)C2)n(Cc2ccccc2C#N)c1=O [UM0141676:01, Alogliptin (SYR-322)] |  | 0.7637% |
| O=c1cc(-c2ccc(O)c(-c3c(O)cc(O)c4c(=O)cc(-c5ccc(O)cc5)oc34)c2)oc2cc(O)cc(O)c12 [UM0142863:01, Amentoflavone] | 47.02% |  |
| Cc1cc(Nc2nc(N[C@@H](C)c3ncc(F)cn3)ncc2Cl)[nH]n1 [UM0136754:02, AZD1480] | 15.63% |  |
| CCCOc1ccccc1-c1nc2[nH]nnc2c(=O)[nH]1 [UM0142774:01, Zaprinast] | 3.478% |  |
| O=C(O)C(O)C(O)C(=O)O (stereo not drawn) [UM0142810:01, Sodium tartrate] | 0.7692% |  |
| CCCOc1ccc(CCc2nc3cc(-c4c(C)noc4C)ccc3n2CCN2CCOCC2)cc1 [UM0142766:01, PF-CBP1] | 9.037% |  |
| Cn1cnc(N)c2ncnc1-2 [UM0142011:01, 3-Methyladenine] | 0.4537% |  |
| COc1cc2c(cc1O)CC[C@@H]1[C@@H]2CC[C@]2(C)[C@@H](O)CC[C@@H]12 [UM0119979:04, 2-Methoxyestradiol (2-MeOE2)] | 12.97% |  |
| CCN[C@H]1C[C@H](C)S(=O)(=O)c2sc(S(N)(=O)=O)cc21 [UM0118923:03, Dorzolamide HCl] | -0.4651% |  |
| Cc1cc(C)nc(NS(=O)(=O)c2ccc(NC(=S)NC(=O)COc3ccc(Br)cc3Cl)cc2)n1 [UM0141974:01, ZCL278] | 9.562% |  |
| Cn1cc(-c2ccc3nnc(Sc4ccc5ncccc5c4)n3n2)cn1 [UM0141386:01, SGX-523] | 2.769% |  |
| Cc1ccc(NCCCc2ccccc2)c(N)c1 [UM0142338:01, JSH-23] | 14.43% |  |
| C[C@]12CC[C@H](O)CC1=CC[C@@H]1[C@@H]2CC[C@]2(C)C(c3cccnc3)=CC[C@@H]12 [UM0141772:01, Abiraterone] | 5.429% |  |
| C=CC(=O)Nc1cccc(Oc2nc(Nc3ccc(N4CCN(C)CC4)cc3OC)ncc2Cl)c1 [UM0141397:01, WZ4002] | 30.48% |  |
| Nc1nccc(Oc2ccc(NC(=O)c3c[nH]cc(-c4ccc(F)cc4)c3=O)cc2F)c1Cl [UM0142257:01, BMS-794833] | 54.88% |  |
| C/C(=C\c1csc(C)n1)[C@@H]1C[C@@H]2O[C@]2(C)CCC[C@H](C)[C@H](O)[C@@H](C)C(=O)C(C)(C)[C@@H](O)CC(=O)N1 [UM0141566:01, Ixabepilone] | 1.607% |  |
| CC(C)(C)c1cc(NC(=O)Nc2ccc(-c3cn4c(n3)sc3cc(OCCN5CCOCC5)ccc34)cc2)no1 [UM0130989:03, Quizartinib (AC220)] | 1.247% |  |
| CCCCC1=NC2(CCCC2)C(=O)N1Cc1ccc(-c2ccccc2-c2nnn[nH]2)cc1 [UM0133057:02, Irbesartan] | 5.211% |  |
| Cc1n[nH]c2ccc(-c3cncc(OC[C@@H](N)Cc4c[nH]c5ccccc45)c3)cc12 [UM0141510:01, A-443654] | 34.74% |  |
| CC(=O)O/N=C1/C(c2c(O)[nH]c3cc(Br)ccc23)=Nc2ccccc21 [UM0142638:01, BIO-acetoxime] | 40.08% |  |
| COC(=O)N(C)c1c(N)nc(-c2nn(Cc3ccccc3F)c3ncccc23)nc1N [UM0141619:01, Riociguat] | 2.487% |  |
| CCOC(=O)CCNc1cc(N2CCc3ccccc3CC2)nc(-c2ccccn2)n1 [UM0141754:01, GSK J4 HCl] | 11.33% |  |
| CN(C)CCCC1(c2ccc(F)cc2)OCc2cc(C#N)ccc21 (stereo not drawn) [UM0142779:01, Citalopram hydrobromide] | 0.9875% |  |
| O=C(Nc1ccc2[nH]nc(-c3ccncc3)c2c1)[C@@H]1CCN(CC(=O)N2CCN(c3ccc(-c4ncccn4)cc3)CC2)C1 [UM0141626:01, SCH772984] |  | 11.73% |

Other lines, results leading:

| Inh (PKA) | Inh (PKA) (Inh (PKA)) | SMILES |
| --- | --- | --- |
| 3.83% |  | CC(C)N(CCCNC(=O)Nc1ccc(C(C)(C)C)cc1)C[C@H]1O[C@@H](n2cc(Br)c3c(N)ncnc32)[C@H](O)[C@@H]1O [UM0141743:01, SGC 0946] |
| 55.62% |  | CCN(CC)CCNC(=O)c1c(C)[nH]c(/C=C2\C(=O)Nc3ccc(F)cc32)c1C [UM0141973:01, Sunitinib malate] |
| 3.005% |  | CC(C)Cc1ccc(C(C)C(=O)O)cc1 (stereo not drawn) [UM0142046:01, Ibuprofen] |
| -0.5821% |  | CC(C)(C)NCC(O)c1ccc(O)c(CO)c1 (stereo not drawn) [UM0142213:01, Salbutamol Sulfate] |
| 11.59% |  | CC(NC(=O)c1ccccc1/N=C/c1c(O)ccc2ccccc12)c1ccccc1 (stereo not drawn) [UM0141749:01, Sirtinol] |
| 8.385% |  | CC(C)(C)C#Cc1cc(N(C(=O)[C@H]2CC[C@H](C)CC2)[C@H]2CC[C@H](O)CC2)c(C(=O)O)s1 [UM0141672:01, VX-222 (VCH-222, Lomibuvir)] |
| -1.243% |  | CN(C)CC/C=C1/c2ccccc2COc2ccc(CC(=O)O)cc21 [UM0142309:01, Olopatadine HCl] |
| 3.156% |  | CN(C)CC(=O)Nc1ccc2[nH]c(=O)c3ccccc3c2c1 [UM0141738:01, PJ34 hydrochloride] |
| 1.508% |  | CC1(C)[C@H](C(=O)O)N2C(=O)C[C@H]2S1(=O)=O [UM0142408:01, Sulbactam sodium] |
| 11.49% |  | CCCCCCCc1ccc(CCc2cccc(O)c2C(=O)O)cc1 [UM0142505:01, MG 149] |
| 18.84% |  | C[C@@H]1O[C@@H](CC(=O)O)CC2=C1C(=O)c1c(O)cccc1C2=O [UM0141940:01, Nanaomycin A] |
| 5.283% |  | C[C@H](CCC(=O)O)[C@H]1CC[C@H]2[C@@H]3CC[C@@H]4C[C@H](O)CC[C@]4(C)[C@H]3C[C@H](O)[C@]12C [UM0142850:01, Deoxycholic acid] |
| 4.784% |  | Cc1cc(C(N)=O)ccc1-n1c(CCC(=O)O)ccc1-c1ccc(-n2ccnc2)cc1 [UM0142172:01, N6022] |
| 3.161% |  | CC(C)C(=O)OCC(=O)[C@@]12O[C@H](C3CCCCC3)O[C@@H]1C[C@H]1[C@@H]3CCC4=CC(=O)C=C[C@]4(C)[C@H]3[C@@H](O)C[C@@]12C [UM0142517:01, Ciclesonide] |
| 92.04% |  | CCOC(=O)C1=C(C)NC(C)=C(C(=O)OC)C1c1cccc(Cl)c1Cl (stereo not drawn) [UM0142246:01, Felodipine] |
| 1.422% |  | O=C(/C=C/c1cccc(S(=O)(=O)Nc2ccccc2)c1)NO [UM0141702:01, Belinostat (PXD101)] |
| 9.195% |  | O=C(O)c1cccc(-c2noc(-c3ccccc3F)n2)c1 [UM0142085:01, PTC124 (Ataluren)] |
| 28.18% |  | CC1(C)Cc2c(-c3ccccc3)c(-c3ccc(Cl)cc3)c(CC(=O)O)n2C1 [UM0142263:01, Licofelone] |
| 1.642% |  | COC(=O)C[C@H](NC(=O)[C@H](CCSC)NC(=O)[C@H](CCC(N)=O)NC(=O)[C@H](CC(=O)OC)NC(=O)OCc1ccccc1)C(=O)CF [UM0141428:01, Z-DQMD-FMK] (Cbz-D(OMe)QMD(OMe)-CH2F) |
| 0.9397% |  | CC(=O)NCCCS(=O)(=O)O [UM0133300:02, Acamprosate calcium] |
| 7.218% |  | CCC(=O)O[C@]1(C(=O)CCl)[C@@H](C)C[C@H]2[C@@H]3C[C@H](F)C4=CC(=O)C=C[C@]4(C)[C@@]3(F)[C@@H](O)C[C@@]21C [UM0142361:01, Halobetasol Propionate] |
| 14.88% |  | CC(C)n1c(/C=C/[C@@H](O)C[C@@H](O)CC(=O)O)c(-c2ccc(F)cc2)c2ccccc21 [UM0141809:01, Fluvastatin Sodium] |
| 35.77% |  | CC1=C(C(=O)OC(C)C)C(c2cccc([N+](=O)[O-])c2)C(C(=O)OC2CN(C(c3ccccc3)c3ccccc3)C2)=C(N)N1 (stereo not drawn) [UM0142244:01, Azelnidipine] |
| -3.585% |  | O=C(O)O [UM0141172:02, Lithium carbonate] |
|  | -3.616% | C[C@@H](N)[C@H]1CC[C@H](C(=O)Nc2ccncc2)CC1 [UM0141498:01, Y-27632 dihydrochloride] |
| -1.099% |  | Cc1ccc(C(=O)C(C)CN2CCCCC2)cc1 (stereo not drawn) [UM0142383:01, Tolperisone HCl] |
| -1.147% |  | Nc1ccc(C(=O)O)cc1 [UM0142813:01, 4-Aminobenzoic acid] |
